The text below walks through data of patent US8603965B2, “Pharmaceutical composition for the prophylaxis and treatment of HIV infection and its use” (priority 2006, dated 2013).

“And” between values parts separate entries of the source, which are not always exact repeats. Equal entries are not always repeated. “Also recorded” adds a separate entry of the source. Where two headings read alike, the source gives them in different places. Ends that are not written are not given here.

The subject of data set [1] is HIV. The conditions noted are these: HIV fusion assay; cited from earlier work.
Data set [2] can be described thus: Pharmacokinetic study of single subcutaneous or intravenous injection of FS-01 in rhesus monkey. Format: in vivo. To be noted: 1.2 mg/kg. On the procedure:
Detailed experiment method as follows: three rhesus monkeys, crossover design, with a washout period of more than two weeks. Rhesus monkey was administrated 1.2 mg/kg of FS-01 by subcutaneously or intravenously injection, 1 ml of blood sample were collected at different point of time (0, 1, 5, 15, 30 min, 1, 2, 4, 6, 8, 12, 24 and 48 h). Drug concentration at different time point in blood sample was quantitatively analyzed by LC\MS\MS, utilizing iodine labeled FS-01 as internal standard, C18 column, aqueous solution containing 0.1% TFA and acetonitrile as mobile phase. Pharmacokinetics analysis was carried out according to fitting model based on the concentration of FS-01, determined the half-life (T1/2) in plasma, bioavailability and other pharmacokinetics parameters (FIG. 1).

Data set [3] is described as follows: Pharmacokinetic study of single subcutaneous injection of pharmaceutical composition containing FS-01 in healthy volunteers. The format is in vivo, human. The method, then: 3-period crossover Latin square design was employed, 12 subjects were randomly divided into three groups, four subjects per group, and were sequentially abdomenal and subcutaneously injected by pharmaceutical composition containing 10, 20, 30 mg of FS-01, doses are listed in Table 2. Blood samples were collected at 30-5 min pre-dose, 5, 15, 30 min, 1, 2, 4, 6, 8, 12, 24, 48 and 72 h after injection. The concentration of FS-01 in blood sample was quantitatively analyzed by LC\MS\MS.

The subject of data set [4] is HIV. Kind of data set: Multidose subcutaneous injection once daily for 14 days in HIV positive patients (Example 4). Format: in vivo, human. The conditions noted are these: 1-30 mg once daily. On the procedure: Twenty-one subjects were divided into 5 groups, received pharmaceutical composition containing 1 mg, 5 mg, 10 mg, 20 mg, 30 mg FS-01 once daily, for 14 days. Determined the viral load before injection and after injection.

The subject of data set [5] is HIV. Kind of data set: Multidose subcutaneous injection once daily for 28 days in HIV positive patients (Example 5). Format: in vivo, human. The conditions noted are these: 10 mg and 20 mg once daily. The method, then:
(§1) Nineteen HIV patients were divided into two groups, were subcutaneously injected with pharmaceutical composition containing 10 mg and 20 mg of FS-01 once daily, for 28 days. The data was analyzed together with that in Example 4.

Data set [6] in a line: Half-life of FS-01 in HIV patient. The conditions noted are these: human, in vivo, subcutaneous, 20 mg. On the procedure:
as §1
It has been shown in the result that the pharmaceutical composition of the present invention has good safety profile. […] Plasma viral load in HIV infected patient with baseline less than <10,000 c/ml decreased by 1.2 log in 20 mg group 14 days after administration (see FIG. 3). And it is recommended for infected patient with baseline viral load more than 10,000 c/ml to receive combination treatment with other antiviral agents, such as antiretroviral inhibitors or protease inhibitors.

The mark [7] stands for this setting: plasma, 24 h, read-out: C24 (plasma concentration at 24 h).
Setting [8] is: healthy volunteers, 10, 20, 30 mg.

For the substance “X-SWETWEREIENYTKQIYKILEESQEQQDRNEKDLLE-Z (not fully specified (N-terminus, C-terminus); printed as X-SWETWEREIENYTKQIYKILEESQEQQDRNEKDLLE-Z)”, in the data set with HIV [1], the “EC50 relative to T-20” value was 20 times lower than T-20.
In the case of “Ac-SWETWEREIENYTRQIYRILEESQEQQDRNERDLLE-NH2 [FS-01]”, the Tmax was 0.25 h-2 h in data set [2] and 0.25 to 2 h in data set [2] (plasma, read-out: Tmax). The Cmax in data set [2] (plasma) is 508 ng/mL and 108 nM; in data set [3] (human, plasma, sc, 10 mg, healthy volunteers, 10 mg (low dose), single subcutaneous injection) it was 104 ng/mL and 22 nM; in data set [3] (human, plasma, sc, 20 mg, healthy volunteers, 20 mg (middle dose), single subcutaneous injection) it was 213 ng/mL and 45.1 nM; in data set [3] (human, plasma, sc, 30 mg, healthy volunteers, 30 mg (high dose), single subcutaneous injection), 250 ng/mL and 52.9 nM. Moreover, in data set [2] (setting [7]), the level at 24 h is more than 9.8 ng/mL. Also, in data set [2] (setting [7]), the level at time molar at 24 h was more than 2.07 nM. For the same substance, the half-life in data set [2] (plasma, subcutaneous or intravenous injection) was 8.13 ± 3.1 h; in data set [3] (human, plasma, sc, healthy volunteers, single subcutaneous injection) it was 20 ± 18.6 h; in data set [6] it was 39 h. Besides, the bioavailability in data set [2] (plasma, subcutaneous or intravenous injection, read-out: bioavailability (BA)) stood at 50%. Further, the “clearance rate as dose increases” value in data set [3] (setting [8]) was “did not slow down; also recorded: did not decrease”. Also, the “pharmacokinetic process (linearity)” value in data set [3] (setting [8]) was “linear pattern; also recorded: linear relation”. Further, the “plasma drug concentration after 72 hours” value in data set [3] (healthy volunteers, 72 hours after dosing) is “approaching baseline; also recorded: approached to baseline”. Further, the side effects result with HIV [4] was “No signs of substantial side effects”. In addition, the “side effects / safety profile” value with HIV [5] is “No signs of substantial side effects”.

By Cmax is commonly meant the highest concentration seen after dosing. Usually half-life stands for the time in which the quantity being followed falls by half. A word on the bioavailability: it is dose-corrected exposure relative to a reference, in per cent.
